Values joined by “and” are separate entries in the source; they are usually repeats but may differ in a detail not shown here. Equal entries are not always repeated.
System: human A549 epithelial cells
Test: Resgen Human cDNA arrays (PRHU03-S3) of A549 cells treated with peptide (Tables 21-26)
Settings: 50 μg/ml, 4 h

How did the “Ratio Peptide:Unstimulated, small inducible cytokine subfamily A (Cys—Cys), member 20” value (AI285199) turn out when `CC[C@H](C)[C@H](N)C(=O)N[C@@H](CC(C)C)C(=O)N1CCC[C@H]1C(=O)N[C@@H](Cc1c[nH]c2ccccc12)C(=O)N[C@@H](CCCCN)C(=O)N[C@@H](Cc1c[nH]c2ccccc12)C(=O)N1CCC[C@H]1C(=O)N[C@@H](Cc1c[nH]c2ccccc12)C(=O)N[C@@H](Cc1c[nH]c2ccccc12)C(=O)N1CCC[C@H]1C(=O)N[C@@H](Cc1c[nH]c2ccccc12)C(=O)N[C@@H](CCCNC(=N)N)C(=O)N[C@@H](CCCNC(=N)N)C(N)=O` [SEQ ID NO: 2] was run?
The value was 0.19.

And the “Ratio Peptide:Unstimulated, TLR 1” value (AI339155)?
The value was 0.35.

And the “Ratio Peptide:Unstimulated, disintegrin-like and metalloprotease with thrombospondin type 1 motif, 5” value (AI375048)?
The value was 0.39.

What about the “Ratio Peptide:Unstimulated, killer cell lectin-like receptor subfamily G, member 1” value (AI433079) of the same compound?
The value was 2.3.

What about the “Ratio Peptide:Unstimulated, apoptosis antagonizing transcription factor” value (AI439571) of the same compound?
Its value is 0.28.

And the “Ratio Peptide:Unstimulated, T-cell receptor interacting molecule” value (AI453185)?
Its value is 0.41.

What about the “Ratio Peptide:Unstimulated, TGFB inducible early growth response 2” value (AI473938, listed as ID 2) of the same compound?
Its value is 2.4 and 2.38.

And the “Ratio Peptide:Unstimulated, MAP kinase kinase kinase 1” value (AI538525)?
Its value is 0.61.

What about the “Ratio Peptide:Unstimulated, protocadherin 12” value (AI652584) of the same compound?
Its value is 14.8.

And the “Ratio Peptide:Unstimulated, protein tyrosine phosphatase, non-receptor type 18” value (AI668897)?
Its value is 3.2.

And the “Ratio Peptide:Unstimulated, Fc fragment of IgE, high affinity I, receptor for; alpha polypeptide” value (AI676097)?
Its value is 0.43.

And the “Ratio Peptide:Unstimulated, G protein-coupled receptor 4” value (AI719098)?
Its value is 3.7.

And the “Ratio Peptide:Unstimulated, peroxisome proliferative activated receptor, alpha” value (AI739498)?
The value was 0.38.

What about the “Ratio Peptide:Unstimulated, cadherin 12, type 2 (N-cadherin 2)” value (AI740827) of the same compound?
The value was 13.

And the “Ratio Peptide:Unstimulated, complement component C1q receptor” value (AI761788)?
The value was 0.46.

What about the “Ratio Peptide:Unstimulated, small inducible cytokine subfamily B (Cys-X-Cys), member 6 (granulocyte chemotactic protein 2)” value (AI889554) of the same compound?
The value was 0.11.

And the “Ratio Peptide:Unstimulated, small inducible cytokine subfamily A (Cys—Cys), member 21” value (AI922341)?
The value was 3.9.

And the “Ratio Peptide:Unstimulated, protein tyrosine phosphatase, receptor type, H” value (AI924306)?
The value was 0.11.

What about the “Ratio Peptide:Unstimulated, tyrosine kinase, non-receptor, 1” value (AI936324) of the same compound?
The value was 7.8.

And the “Ratio Peptide:Unstimulated, MAP kinase 12” value (AI936909)?
The value was 2.1.

And the “Ratio Peptide:Unstimulated, G protein-coupled receptor 17” value (AI953187)?
The value was 0.32.

And the “Ratio Peptide:Unstimulated, apoptosis inhibitor 5” value (AI972925)?
The value was 2.8.

What about the “Ratio Peptide:Unstimulated, IL-17 R” value (AW029299) of the same compound?
Its value is 2.1.

What about the “Ratio Peptide:Unstimulated, MAP kinase kinase kinase 6” value (AW084649) of the same compound?
Its value is 0.37.

And the “Ratio Peptide:Unstimulated” value (C-type lectin-like receptor-2 (H70491))?
The value was 2.09.

What about the “Ratio Peptide:Unstimulated” value (CCR6 (N57964)) of the same compound?
Its value is 4.51.

And the “Ratio Peptide:Unstimulated” value (CD31 (PECAM) (R22412))?
Its value is 2.71.

What about the “Ratio Peptide:Unstimulated, selectin L (lymphocyte adhesion molecule 1)” value (H00662) of the same compound?
Its value is 0.03.

And the “Ratio Peptide:Unstimulated, MAP kinase kinase kinase 10” value (H01340)?
The value was 1.23.

What about the “Ratio Peptide:Unstimulated, protein tyrosine phosphatase, non-receptor type 21” value (H03504) of the same compound?
The value was 0.94.

And the “Ratio Peptide:Unstimulated, MAP kinase kinase 6” value (H07920, listed as ID 2)?
The value was 18 and 17.83.

And the “Ratio Peptide:Unstimulated, disintegrin and metalloproteinase domain 23” value (H11006)?
The value was 1.9.

And the “Ratio Peptide:Unstimulated, vascular cell adhesion molecule 1” value (H16591)?
The value was 0.20.

What about the “Ratio Peptide:Unstimulated, leukocyte immunoglobulin-like receptor, subfamily B” value (H54023) of the same compound?
Its value is 0.35.

What about the “Ratio Peptide:Unstimulated, disintegrin and metalloproteinase domain 9” value (H59231) of the same compound?
The value was 1.1.

And the “Ratio Peptide:Unstimulated, TGF beta receptor III” value (H62473)?
The value was 0.91.

What about the “Ratio Peptide:Unstimulated, regulator of G-protein signaling 13” value (H70047) of the same compound?
Its value is 0.54.

And the “Ratio Peptide:Unstimulated, C-type lectin-like receptor-2” value (H70491)?
Its value is 2.1.

What about the “Ratio Peptide:Unstimulated, vasoactive intestinal peptide receptor 1” value (H73241) of the same compound?
The value was 0.43.

What about the “Ratio Peptide:Unstimulated, protein tyrosine phosphatase, receptor type, C” value (H74265) of the same compound?
Its value is 0.44.

What about the “Ratio Peptide:Unstimulated, protein tyrosine phosphatase, receptor type, A” value (H82419) of the same compound?
The value was 4.0.

And the “Ratio Peptide:Unstimulated, G protein-coupled receptor 75” value (H84878)?
The value was 5.2.

And the “Ratio Peptide:Unstimulated, cadherin 1, type 1, E-cadherin epithelial” value (H97778)?
Its value is 8.1.

What about the “Ratio Peptide:Unstimulated, TNF R superfamily, member 5 (CD40LR)” value (H98636, listed as ID 2) of the same compound?
The value was 3.0 and 2.98.

What about the “Ratio Peptide:Unstimulated” value (IL-11 Rα (AA454657)) of the same compound?
Its value is 2.39.

What about the “Ratio Peptide:Unstimulated” value (IL-17 R (AW029299)) of the same compound?
The value was 2.05.

What about the “Ratio Peptide:Unstimulated” value (MAP kinase 9 (AA157286)) of the same compound?
The value was 0.57.

What about the “Ratio Peptide:Unstimulated, TLR 7” value (N30597) of the same compound?
The value was 0.13.

What about the “Ratio Peptide:Unstimulated, CD36” value (N39161) of the same compound?
Its value is 8.2.

And the “Ratio Peptide:Unstimulated, TLR 5” value (N41021)?
The value was 0.12.

What about the “Ratio Peptide:Unstimulated, protein tyrosine phosphatase, receptor type, f polypeptide (PTPRF), interacting protein (liprin), α1” value (N49751) of the same compound?
Its value is 0.43.

And the “Ratio Peptide:Unstimulated, IL-2 receptor, gamma (severe combined immunodeficiency)” value (N54821)?
The value was 0.30.

And the “Ratio Peptide:Unstimulated, adenosine A2a R” value (N57553)?
The value was 3.1.

And the “Ratio Peptide:Unstimulated, CCR6” value (N57964)?
Its value is 4.5.

What about the “Ratio Peptide:Unstimulated, G protein-coupled receptor 55” value (N58443) of the same compound?
Its value is 19.

And the “Ratio Peptide:Unstimulated, G protein-coupled receptor 85” value (N62306)?
The value was 6.8.

And the “Ratio Peptide:Unstimulated, leukocyte immunoglobulin-like receptor, subfamily A” value (N63398)?
The value was 0.44.

What about the “Ratio Peptide:Unstimulated, receptor tyrosine kinase-like orphan receptor 2” value (N94921) of the same compound?
The value was 7.3.

What about the “Ratio Peptide:Unstimulated, CD31” value (R22412) of the same compound?
Its value is 2.7.

What about the “Ratio Peptide:Unstimulated, IK cytokine, down-regulator of HLA II” value (R39227, listed as ID 2) of the same compound?
Its value is 3.1 and 3.11.

What about the “Ratio Peptide:Unstimulated, cell adhesion molecule” value (R40400) of the same compound?
Its value is 4.0.

And the “Ratio Peptide:Unstimulated, cadherin 13, H-cadherin (heart)” value (R41787)?
Its value is 0.37.

And the “Ratio Peptide:Unstimulated, diphtheria toxin receptor (heparin-binding epidermal growth factor-like growth factor)” value (R45640)?
The value was 0.49.

And the “Ratio Peptide:Unstimulated, protein tyrosine phosphatase, receptor type, T” value (R52794)?
The value was 1.2.

What about the “Ratio Peptide:Unstimulated, PDGF R beta polypeptide” value (R56211) of the same compound?
Its value is 2.5.

And the “Ratio Peptide:Unstimulated, interleukin enhancer binding factor 1” value (R56553)?
Its value is 2.7.

And the “Ratio Peptide:Unstimulated, Fc fragment of IgG, low affinity IIb, receptor for (CD32)” value (R68106)?
The value was 0.27.

And the “Ratio Peptide:Unstimulated, MAP kinase kinase kinase 11” value (R80779)?
The value was 0.65.

And the “Ratio Peptide:Unstimulated, protocadherin gamma subfamily C, 3” value (R89615)?
The value was 3.0.

And the “Ratio Peptide:Unstimulated, G protein-coupled receptor” value (R91916)?
Its value is 1.84.

What about the “Ratio Peptide:Unstimulated, TNF receptor-associated factor 2” value (T55353) of the same compound?
Its value is 1.22.

What about the “Ratio Peptide:Unstimulated, TLR 2” value (T57791) of the same compound?
The value was 0.52.

What about the “Ratio Peptide:Unstimulated, caspase 1, apoptosis-related cysteine protease (interleukin 1, beta, convertase)” value (T95052) of the same compound?
The value was 0.44.

What about the “Ratio Peptide:Unstimulated, BMP R type IA” value (W15390) of the same compound?
The value was 1.9.

What about the “Ratio Peptide:Unstimulated, caspase 6, apoptosis-related cysteine protease” value (W45688) of the same compound?
The value was 0.7.

What about the “Ratio Peptide:Unstimulated, MAP kinase kinase kinase 8” value (W56266) of the same compound?
The value was 1.52.

And the “Ratio Peptide:Unstimulated, integrin, beta 8” value (W56754)?
Its value is 0.10.

And the “Ratio Peptide:Unstimulated, MAP kinase kinase kinase 14” value (W61116)?
The value was 0.34.

What about the “Ratio Peptide:Unstimulated, integrin, beta 1” value (W67174) of the same compound?
Its value is 2.1.

What about the “Ratio Peptide:Unstimulated, MAP kinase-activated protein kinase 3” value (W68281, listed as ID 2) of the same compound?
The value was 2.1 and 2.13.

What about the “Ratio Peptide:Unstimulated, MAP kinase kinase 5” value (W69649) of the same compound?
The value was 3.0.

What about the “Ratio Peptide:Unstimulated, TNF receptor superfamily, member 12” value (W71984) of the same compound?
The value was 0.59.

What about the “Ratio Peptide:Unstimulated, killer cell lectin-like receptor subfamily C, member 3” value (W93370) of the same compound?
The value was 3.2.

What about the “Ratio Peptide:Unstimulated, Mouse Mammary Turmor Virus Receptor homolog” value (W93891) of the same compound?
The value was 6.9.

What about the “Ratio Peptide:Unstimulated” value (integrin, alpha 2 (CD49B) (AA463257)) of the same compound?
The value was 0.89.

And the “Ratio Peptide:Unstimulated” value (integrin, alpha 3 (antigen CD49C) (AA424695))?
Its value is 0.79.

What about the “Ratio Peptide:Unstimulated” value (integrin, alpha E (AA425451)) of the same compound?
Its value is 179.33.

And the “Ratio Peptide:Unstimulated” value (integrin, beta 4 (AA485668))?
Its value is 0.79.

And the “Ratio Peptide:Unstimulated” value (small inducible cytokine subfamily A, member 21 (AI922341))?
Its value is 3.88.
